Patent US8859466B2, “Oxaspirocyclic spiro-substituted tetramic acid and tetronic acid derivatives” (Bayer CropScience AG, priority 2007, dated 2014)

Assay: Determination of the logP values by HPLC on a reverse-phase column (C 18)
Assay type: physicochemical
Settings: HPLC on a reverse-phase column (C 18); separated α/β isomers
Method: Determination of the logP Values
The logP values given in the table were determined in accordance with EEC Directive 79/831 Annex V.A8 by HPLC (high performance liquid chromatography) on a reverse-phase column (C 18). Temperature: 55° C.
Mobile phases for the determination in the acidic range (pH 3.4):
Mobile phase A: acetonitrile+1 ml of formic acid/liter. Mobile phase B: water+0.9 ml of formic acid/liter.
Gradient: from 10% mobile phase A/90% mobile phase B to 95% mobile phase A/5% mobile phase B over 4.25 min.
Calibration was carried out using unbranched alkan-2-ones (having 3 to 16 carbon atoms) with known logP values (determination of the logP values by the retention times using linear interpolation between two successive alkanones). The lambda max values were determined in the maxima of the chromatographic signals using the UV spectra from 200 nm to 400 nm.

Structure (SMILES)	log P*
Cc1cc(C)c(C2=C(O)C3(CCC4(CCCO4)CC3)OC2=O)c(C)c1 (single isomer, unassigned) [Example I-2-a-4]	2.52
CCc1cc(Br)cc(C)c1C1=C(O)C2(CCC3(CCCO3)CC2)OC1=O (single isomer, unassigned) [Example I-2-a-7]	2.94
CCc1cc(Cl)cc(CC)c1C1=C(O)C2(CCC3(CCCO3)CC2)OC1=O (single isomer, unassigned) [Example I-2-a-8]	3.09
CCc1cc(C)cc(C)c1C1=C(O)C2(CCC3(CCCO3)CC2)OC1=O (single isomer, unassigned) [Example I-2-a-14]	2.73
CCc1cc(C)cc(C)c1C1=C(O)C2(CCC3(CCCO3)CC2)OC1=O (single isomer, unassigned) [Example I-2-a-15]	3.21
CCc1cc(C)cc(CC)c1C1=C(O)C2(CCC3(CCCO3)CC2)OC1=O (single isomer, unassigned) [Example I-2-a-16]	2.99
CCc1cc(C)cc(CC)c1C1=C(O)C2(CCC3(CCCO3)CC2)OC1=O (single isomer, unassigned) [Example I-2-a-17]	3.47
Cc1cc(C2=C(O)C3(CCC4(CCCO4)CC3)OC2=O)c(C)cc1Br (single isomer, unassigned) [Example I-2-a-31]	2.77
Cc1cc(C)c(C2=C(O)C3(CCC4(CCCO4)CC3)OC2=O)c(Br)c1 (single isomer, unassigned) [Example I-2-a-32]	2.48
COc1cccc(C)c1C1=C(O)C2(CCC3(CCCO3)CC2)OC1=O (single isomer, unassigned) [Example I-2-a-35]	2.42
CCc1cc(Br)cc(Cl)c1C1=C(O)C2(CCC3(CCCO3)CC2)OC1=O (single isomer, unassigned) [Example I-2-a-36]	2.77
CCc1cc(Br)cc(Cl)c1C1=C(O)C2(CCC3(CCCO3)CC2)OC1=O (single isomer, unassigned) [Example I-2-a-37]	3.40
CCc1cc(Cl)c(C2=C(O)C3(CCC4(CCCO4)CC3)OC2=O)c(Br)c1 (single isomer, unassigned) [Example I-2-a-39]	3.26
Cc1cc(C2=C(O)C3(CCC4(CCCO4)CC3)OC2=O)c(Cl)cc1Cl (single isomer, unassigned) [Example I-2-a-40]	2.60
Cc1cc(C)c(-c2ccc(Cl)cc2)c(C)c1C1=C(O)C2(CCC3(CCCO3)CC2)OC1=O (single isomer, unassigned) [Example I-2-a-42]	3.79
Cc1cc(C)c(-c2ccc(Cl)cc2)c(C)c1C1=C(O)C2(CCC3(CCCO3)CC2)OC1=O (single isomer, unassigned) [Example I-2-a-43]	4.32
CCc1cc(Cl)cc(C)c1C1=C(O)C2(CCC3(CCCO3)CC2)OC1=O (single isomer, unassigned) [Example I-2-a-45]	3.34

Structure (SMILES)	log P*
Cc1cc(C)c(C2=C(O)C3(CCC4(CCCO4)CC3)OC2=O)cc1C (single isomer, unassigned) [Example I-2-a-48]	2.99
Cc1cc(C)c(C2=C(O)C3(CCC4(CCCO4)CC3)OC2=O)cc1C (single isomer, unassigned) [Example I-2-a-49]	2.54
Cc1ccc(-c2ccc(Cl)c(Cl)c2)cc1C1=C(O)C2(CCC3(CCCO3)CC2)OC1=O (stereo not drawn) [Example I-2-a-12]	3.74
Cc1ccc(-c2ccc(Cl)c(Cl)c2)cc1C1=C(O)C2(CCC3(CCCO3)CC2)OC1=O (stereo not drawn) [Example I-2-a-13]	4.24
Cc1ccc(-c2ccc(Cl)cc2)c(C)c1C1=C(O)C2(CCC3(CCCO3)CC2)OC1=O (stereo not drawn) [Example I-2-a-19]	4.06
O=C1OC2(CCC3(CCCO3)CC2)C(O)=C1c1cc(-c2ccc(Cl)cc2)ccc1Cl (stereo not drawn) [Example I-2-a-20]	3.25
O=C1OC2(CCC3(CCCO3)CC2)C(O)=C1c1cc(-c2ccc(Cl)cc2)ccc1Cl (stereo not drawn) [Example I-2-a-21]	3.79
Cc1ccc(-c2ccc(F)cc2)cc1C1=C(O)C2(CCC3(CCCO3)CC2)OC1=O (stereo not drawn) [Example I-2-a-23]	3.5
Cc1ccc(-c2ccc(Cl)cc2)cc1C1=C(O)C2(CCC3(CCCO3)CC2)OC1=O (stereo not drawn) [Example I-2-a-24]	3.32
Cc1ccc(-c2ccc(Cl)cc2)cc1C1=C(O)C2(CCC3(CCCO3)CC2)OC1=O (stereo not drawn) [Example I-2-a-25]	3.87
Cc1cc(C)c(-c2ccc(Cl)cc2)cc1C1=C(O)C2(CCC3(CCCO3)CC2)OC1=O (stereo not drawn) [Example I-2-a-26]	4.15
Cc1cc(C)c(-c2ccc(Cl)cc2)cc1C1=C(O)C2(CCC3(CCCO3)CC2)OC1=O (stereo not drawn) [Example I-2-a-27]	3.60
Cc1ccc(-c2ccc(F)cc2)c(C)c1C1=C(O)C2(CCC3(CCCO3)CC2)OC1=O (stereo not drawn) [Example I-2-a-46]	3.69
Cc1ccc(-c2ccc(F)cc2)c(C)c1C1=C(O)C2(CCC3(CCCO3)CC2)OC1=O (stereo not drawn) [Example I-2-a-47]	3.20
O=C1OC2(CCC3(CCCO3)CC2)C(O)=C1c1cc(-c2ccc(F)cc2)ccc1Cl (stereo not drawn) [Example I-2-a-50]	2.91
O=C1OC2(CCC3(CCCO3)CC2)C(O)=C1c1cc(-c2ccc(F)cc2)ccc1Cl (stereo not drawn) [Example I-2-a-51]	3.42

More lines, now with the values ahead:

log P*	Structure (SMILES)
2.73	Cc1ccc(C)c(C2=C(O)C3(CCC4(CCCO4)CC3)OC2=O)c1 (single isomer, unassigned) [Example I-2-a-2]
2.29	Cc1ccc(C)c(C2=C(O)C3(CCC4(CCCO4)CC3)OC2=O)c1 (single isomer, unassigned) [Example I-2-a-3]
3.00	Cc1cc(C)c(C2=C(O)C3(CCC4(CCCO4)CC3)OC2=O)c(C)c1 (single isomer, unassigned) [Example I-2-a-5]
3.44	CCc1cc(Br)cc(C)c1C1=C(O)C2(CCC3(CCCO3)CC2)OC1=O (single isomer, unassigned) [Example I-2-a-6]
3.62	CCc1cc(Cl)cc(CC)c1C1=C(O)C2(CCC3(CCCO3)CC2)OC1=O (single isomer, unassigned) [Example I-2-a-9]
2.28	COc1cc(C)cc(C)c1C1=C(O)C2(CCC3(CCCO3)CC2)OC1=O (single isomer, unassigned) [Example I-2-a-10]
2.66	COc1cc(C)cc(C)c1C1=C(O)C2(CCC3(CCCO3)CC2)OC1=O (single isomer, unassigned) [Example I-2-a-11]
2.73	CCc1cc(C)cc(Br)c1C1=C(O)C2(CCC3(CCCO3)CC2)OC1=O (single isomer, unassigned) [Example I-2-a-28]
3.22	CCc1cc(Br)cc(C)c1C1=C(O)C2(CCC3(CCCO3)CC2)OC1=O (single isomer, unassigned) [Example I-2-a-29]
3.28	Cc1cc(C2=C(O)C3(CCC4(CCCO4)CC3)OC2=O)c(C)cc1Br (single isomer, unassigned) [Example I-2-a-30]
2.95	Cc1cc(C)c(C2=C(O)C3(CCC4(CCCO4)CC3)OC2=O)c(Br)c1 (single isomer, unassigned) [Example I-2-a-33]
2.05	COc1cccc(C)c1C1=C(O)C2(CCC3(CCCO3)CC2)OC1=O (single isomer, unassigned) [Example I-2-a-34]
2.79	CCc1cc(Cl)c(C2=C(O)C3(CCC4(CCCO4)CC3)OC2=O)c(Br)c1 (single isomer, unassigned) [Example I-2-a-38]
3.14	Cc1cc(C2=C(O)C3(CCC4(CCCO4)CC3)OC2=O)c(Cl)cc1Cl (single isomer, unassigned) [Example I-2-a-41]
2.82	CCc1cc(Cl)cc(C)c1C1=C(O)C2(CCC3(CCCO3)CC2)OC1=O (single isomer, unassigned) [Example I-2-a-44]
3.52	Cc1ccc(-c2ccc(Cl)cc2)c(C)c1C1=C(O)C2(CCC3(CCCO3)CC2)OC1=O (stereo not drawn) [Example I-2-a-18]
3.0	Cc1ccc(-c2ccc(F)cc2)cc1C1=C(O)C2(CCC3(CCCO3)CC2)OC1=O (stereo not drawn) [Example I-2-a-22]

Same assay, conditions: compounds of formula (I-2-b)

Structure (SMILES)	log P*
Cc1ccc(-c2ccc(Cl)cc2)cc1C1=C(OC(=O)C(C)C)C2(CCC3(CCCO3)CC2)OC1=O (stereo not drawn) [1-2-b-11]	5.86
Cc1cc(C)c(-c2ccc(Cl)cc2)cc1C1=C(OC(=O)C(C)C)C2(CCC3(CCCO3)CC2)OC1=O (stereo not drawn) [Example I-2-b-4]	6.24
Cc1ccc(C)c(C2=C(OC(=O)C(C)C)C3(CCC4(CCCO4)CC3)OC2=O)c1 (stereo not drawn) [Example I-2-b-5]	4.22
Cc1ccc(C)c(C2=C(OC(=O)C(C)C)C3(CCC4(CCCO4)CC3)OC2=O)c1 (stereo not drawn) [Example I-2-b-6]	4.78
Cc1cc(C)c(C2=C(OC(=O)C(C)C)C3(CCC4(CCCO4)CC3)OC2=O)c(C)c1 (stereo not drawn) [Example I-2-b-7]	4.52
Cc1cc(C)c(C2=C(OC(=O)C(C)C)C3(CCC4(CCCO4)CC3)OC2=O)c(C)c1 (stereo not drawn) [Example I-2-b-8]	5.12

Second part, the compound after the results:

log P*	Structure (SMILES)
4.60	COc1cc(C)cc(C)c1C1=C(OC(=O)C(C)C)C2(CCC3(CCCO3)CC2)OC1=O (stereo not drawn) [Example I-2-b-2]
5.64	Cc1cc(C)c(-c2ccc(Cl)cc2)cc1C1=C(OC(=O)C(C)C)C2(CCC3(CCCO3)CC2)OC1=O (stereo not drawn) [Example I-2-b-3]
4.83	Cc1ccc(-c2ccc(F)cc2)cc1C1=C(OC(=O)C(C)C)C2(CCC3(CCCO3)CC2)OC1=O (stereo not drawn) [Example I-2-b-9]

Same assay, conditions: reverse-phase HPLC column (C 18); HPLC, reverse-phase C 18, acidic range (pH 3.4), 55° C.; read-out: log P

chromatographic logP	Structure (SMILES)
4.12	COc1cc(C)cc(C)c1C1=C(OC(=O)C(C)C)[C@]2(CC[C@@]3(CCCO3)CC2)OC1=O [Example I-2-b-1]
